molecular target: T1, HIS-KRAS (G12C, aa 2-185) (Homo sapiens, UniProt P01116, G12C); test: SOS1 catalyzed nucleotide exchange assay (TR-FRET); assay type: biochemical; conditions: GDP-loaded HIS-KRAS (G12C) pre-incubated with compound 1 hour, SOS1 ExD and BODIPY FL GTP added, 4 hours at 25° C.
T1 construct: HIS-KRAS (G12C, aa 2-185, Sino biological); purchased Sino biological
Procedure: HIS-KRAS (G12C, aa 2-185, Sino biological) was diluted to 5 μM in EDTA buffer (20 mM HEPES, pH 7.4, 50 mM NaCl, 10 mM EDTA, 0.01% (v/v) Tween-20) and incubated for 30 min at 25° C. The EDTA pretreated HIS-KRAS (G12C) was diluted to 12 nM in assay buffer (25 mM HEPES, pH 7.4, 120 mM NaCl, 5 mM MgCl2, 1 mM DTT, 0.01% (v/v) Tween 20, 0.1% (w/v) BSA) containing 120 nM GDP (Sigma) and MAb Anti 6HIS-Tb cryptate Gold (Cisbio) and incubated for 1 hour at 25° C. to prepare GDP-loaded HIS-KRAS (G12C). The GDP-loaded HIS-KRAS (G12C) was pre-incubation with diluted compounds in a 384-well plate (Greiner) for 1 hour, then purified SOS1 ExD (Flag tag, aa 564-1049) and BODIPY™ FL GTP (Invitrogen) were added to the assay wells (Final concentration: 3 nM HIS-KRAS (G12C), 2 μM SOS1 ExD, 80 nM BODIPY™ FL GTP, 21 ng/mL MAb Anti 6HIS-Tb cryptate Gold) and incubated for 4 hours at 25° C. TR-FRET signals were then read on Tecan Spark multimode microplate reader. The parameters were F486: Excitation 340 (35) nm, Emission 486 (10) nm, Lag time 100 las, Integration time 200 las; F515: Excitation 340 (35) nm, Emission 515 (10) nm, Lag time 100 las, Integration time 200 las. TR-FRET ratios for each individual wells were calculated by equation: TR-FRET ratio=(Signal F515/Signal F486)*10000. Then the data were analyzed using a 4-parameter logistic model to calculate IC50 values.

T1 sequence (P01116 2-185 isoform P01116-2 G12C): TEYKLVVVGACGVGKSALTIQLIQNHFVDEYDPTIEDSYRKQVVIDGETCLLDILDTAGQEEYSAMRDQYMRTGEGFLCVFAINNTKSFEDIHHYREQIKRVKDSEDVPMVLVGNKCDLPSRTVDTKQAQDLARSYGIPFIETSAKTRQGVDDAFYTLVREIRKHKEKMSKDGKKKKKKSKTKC

Going from C=CC(=O)N1CCN(c2c(C#N)c(OC[C@@H]3CCCN3C)nc3c2CCN(c2cccc4cccc(C)c24)C3)CC1CC#N (stereo partly drawn) [Compound 1, 4-(4-acryloyl-3-(cyanomethyl)piperazin-1-yl)-7-(8-methylnaphthalen-1-yl)-2-(((S)-1-methylpyrrolidin-2-yl)methoxy)-5,6,7,8-tetrahydro-1,7-naphthyridine-3-carbonitrile] to C=CC(=O)N1CCN(c2c(C#N)c(OC[C@@H]3CCCN3C)nc3c2CCN(c2cccc4cccc(C)c24)C3)C[C@H]1C [Compound 5, 4-((R)-4-acryloyl-3-methylpiperazin-1-yl)-7-(8-methylnaphthalen-1-yl)-2-(((S)-1-methylpyrrolidin-2-yl)methoxy)-5,6,7,8-tetrahydro-1,7-naphthyridine-3-carbonitrile], the IC50 rises from 53.1 nM to over 1000 nM. The first is the more potent here.

C=CC(=O)N1CCN(c2c(C#N)c(OC[C@@H]3CCCN3C)nc3c2CCN(c2cccc4cccc(C)c24)C3)CC1 [Compound 2, (S)-4-(4-acryloylpiperazin-1-yl)-7-(8-methylnaphthalen-1-yl)-2-((1-methylpyrrolidin-2-yl)methoxy)-5,6,7,8-tetrahydro-1,7-naphthyridine-3-carbonitrile] and C=CC(=O)N1CCN(c2c(C#N)c(OC[C@@H]3CCCN3C)nc3c2CCN(c2cccc4cccc(C)c24)C3)C[C@@H]1C [Compound 6, 4-((S)-4-acryloyl-3-methylpiperazin-1-yl)-7-(8-methylnaphthalen-1-yl)-2-(((S)-1-methylpyrrolidin-2-yl)methoxy)-5,6,7,8-tetrahydro-1,7-naphthyridine-3-carbonitrile] cannot be ordered by IC50: over 1000 nM for the first, over 1000 nM for the second.

C=CC(=O)N1[C@H](C)CN(c2c(C#N)c(OC[C@@H]3CCCN3C)nc3c2CCN(c2cccc4cccc(C)c24)C3)C[C@@H]1C [Compound 3, 4-((3S,5R)-4-acryloyl-3,5-dimethylpiperazin-1-yl)-7-(8-methylnaphthalen-1-yl)-2-(((S)-1-methylpyrrolidin-2-yl)methoxy)-5,6,7,8-tetrahydro-1,7-naphthyridine-3-carbonitrile] and C=CC(=O)N1CC(Nc2c(C#N)c(OC[C@@H]3CCCN3C)nc3c2CCN(c2cccc4cccc(C)c24)C3)C1 [Compound 4, (S)-4-((1-acryloylazetidin-3-yl)amino)-7-(8-methylnaphthalen-1-yl)-2-((1-methylpyrrolidin-2-yl)methoxy)-5,6,7,8-tetrahydro-1,7-naphthyridine-3-carbonitrile] cannot be ordered by IC50: over 1000 nM for the first, over 1000 nM for the second.
